Columns and labels:
common carotid artery = assay: Argon laser photothrombotic occlusion of common carotid artery (Example 1); type: in vivo, rat (male Wistar); details: 514.5 nm argon laser
Source text: (§1) Male Wistar rats, each weighing 280 to 330 gm, were anesthetized with 1.5% halothane and maintained on a 70:30 mixture of nitrous oxide and oxygen delivered by a closely fitting Mylar face mask (Watson et al., J. Neurosurg., 66:748-754, 1987, the disclosure of which is hereby incorporated by reference and relied upon). After separation of the temporal musculature, the middle cerebral artery was exposed via a small subtemporal craniectomy produced by a high-speed drill under an operating microscope; the dura was left intact. The common carotid arteries were exposed bilaterally by a midline incision extending from the mental process to the sternal notch; the sternocleidomastoid muscle was then retracted laterally to expose the underlying artery. Bleeding from the operative site was controlled with pressure and Gelfoam. The animal was then prepared for irradiation by filling the surgical cavity with saline, just submerging the exposed blood vessel. The saline solution was kept clear by frequent suction and irrigation. The femoral arteries were exposed by bilateral inguinal incisions and were prepared for irradiation in a fashion similar to that described above.
As assessed by observation of rose bengal fluorescence, thrombus development in the common carotid or femoral arteries followed a course similar to that observed in the middle cerebral artery, except that the thrombus appeared as a […] as viewed through the blood vessel wall. Intense scattering of the incident laser light was also noted at about the time that arterial pulsations at the level of irradiation ceased.
Ultrastructural studies were carried out at either 30 minutes or 7 days following irradiation. Animals were perfused transcardially with 0.9% sodium chloride solution followed by 2% paraformaldehyde and 2.5% glutaraldehyde in a 0.1 M sodium phosphate buffer. Perfusion pressure was monitored throughout the procedure and was maintained at 100 mm Hg. After perfusion fixation, the femoral and common carotid arteries were isolated and placed in fixative for an additional 2 hours. […]

fibrinogen = assay: Immunofluorescence study of thrombus composition, fibrinogen; design: species or system rat
Description: (§2) Following incubation with primary antibody for one hour, FITC-conjugated goat anti-mouse IgG and goat anti-mouse IgG antibodies (Sigma Chemical Co., St. Louis, Mo.) were used as secondary antibodies for anti-fibrinogen and anti-Factor VIII, respectively. The sections were observed by epi-illumination with a Nikon Microphot-FX microscope.

middle cerebral artery [1] = assay: Argon laser photothrombotic occlusion of middle cerebral artery (Example 1); type: in vivo, rat (male Wistar)
Source text: as §1
Thrombus development and subsequent occlusion of the middle cerebral artery were easily observed during irradiation owing to wall transparency. The irradiated segment emitted a bright orange fluorescence (as viewed through an interference filter which rejected the 514.5 nm argon line); this was attributed to rose bengal uptake by red blood cell membranes and binding to plasma proteins such as albumin. As the irradiation proceeded, the fluorescence became yellowish and less intense owing to the accumulation of platelets and exclusion of red blood cells from the developing thrombus. Complete occlusion was signaled by exclusion of red blood cells from the arterial segments both distal and proximal to the irradiated portion, leaving a single colorless segment 7 to 10 arterial diameters in length.
Ultrastructural studies were carried out at either 30 minutes or 7 days following irradiation. Animals were perfused transcardially with 0.9% sodium chloride solution followed by 2% paraformaldehyde and 2.5% glutaraldehyde in a 0.1 M sodium phosphate buffer. Perfusion pressure was monitored throughout the procedure and was maintained at 100 mm Hg. After perfusion fixation, the femoral and common carotid arteries were isolated and placed in fixative for an additional 2 hours. To isolate the middle cerebral artery, the brain was first removed from the cranial vault and placed in fixative for a 2-hour period. Next, the whole brain was placed in phosphate-buffered 1% osmium tetroxide for 2 minutes.
The blood vessels were then postfixed in Millonig's phosphate-buffered 1% osmium tetroxide for 1 hour. Specimens chosen for transmission electron microscopy were dehydrated in ethanol and propylene oxide and embedded in Poly-Bed 812 as previously described (Dietrich et al., J Neuropathol. Exp. Neurol., 43:72-83, 1984). Sections 1 μm thick were cut with glass knives on a Sorvall ultra-microtome and stained with toluidine blue. To characterize the occlusive material more completely, ultra-thin sections stained with uranyl acetate and lead citrate were examined with a Zeiss EM-10C electron microscope. The blood vessels chosen for scanning electron microscopy analysis were examined under a dissecting microscope and cut longitudinally with a scalpel blade to expose the luminal surface. The blood vessels were then dehydrated in graded ethanols and placed in Freon. The tissue was critical-point dried, coated with gold, and examined and photographed with a JEOL JSM-35C scanning electron microscope.

[2] = in vivo; cited from earlier work
Factor VIII = assay: Immunofluorescence study of thrombus composition, Factor VIII; design: species or system rat
Description: as §2

[3] = Absorption / excitation of the dye in tissue; type: physicochemical
Source text: Examples of lasers that can be used to provide the light beam include the He-Ne laser, the argon ion laser and the argon-pumped dye laser. The 543.5 nm He-Ne laser, for example, can excite rose bengal with an efficiency of 58% of the maximum. (The wavelength at which excitation efficiency for rose bengal is maximal in tissue occurs at 562 nm.) Because the maximum theoretical power output is only 4 or 5 milliwatts, the 543.5 nm He-Ne laser is not used in clinical applications at this time. However, this laser is expected to be particularly useful in permanently occluding relatively low-flow arteries, smaller than about 200 μm, such as those in the choroid of the eye.
The argon ion laser is the most common clinical laser used at this time. Although the commonly used argon 514.5 nm line is only 36% efficient with respect to the maximum of rose bengal absorption, this laser is much more powerful (by at least a factor of 1000) and versatile than the He-Ne laser.
The absorption maximum of erythrosin B in endothelial tissue is at 536 nm, which is closer than that of rose bengal to the standard 514.5 nm wavelength of the argon ion laser.

[4] = rabbit, in vivo
Description: In order to investigate possible systemic side effects of rose bengal, the blood chemistry profiles of healthy rabbits before and after intravenous injection of rose bengal were studied. Four practical dosages, i.e., 40, 16, 8 and 4 mg/kg bw, were administered. Five rabbits were used for each dosage except for the dosage of 40 mg/kg bw, in which case ten rabbits were used. Three blood samples (3 ml each) were collected from each rabbit before injection with rose bengal, and one and five days following injection.

[5] = rat, in vivo; cited from earlier work
middle cerebral artery [6] = test system: middle cerebral artery
Description: In order to conduct irradiation of the rat middle cerebral artery at normal blood pressure, oral intubation was performed and mechanical ventilation was initiated after paralysis with pancuronium bromide. The rat was then placed on a tiltable stereotaxic frame, and the middle cerebral artery was exposed through a subtemporal approach. The right temporalis musculature was reflected anteriorally, and a 2×2 mm subtemporal craniotomy was carried out with the aid of a high-speed drill under a dissecting microscope, leaving the middle cerebral artery exposed and the dura intact at the level of the olfactory tract. Rose bengal dye (2 mg in 0.133 ml saline per 100 g animal weight) was administered intravenously, resulting in a blood concentration of 340 μM.
The right middle cerebral artery, at a point just distal to the olfactory branches, was irradiated with the beam of a tunable argon ion laser (Lexel Model 95, Cooper LaserSonics, Santa Clara, CA), operated at 514.5 nm in the continuous mode at a power level of 50 mW. The beam was focused longitudinally onto the middle cerebral artery with two cylindrical lenses, both of 30 cm focal length. […] During irradiation, the irradiated segment appeared orange, owing to rose bengal fluorescence in the flowing blood stream. […]

In the case of `O=C([O-])c1c(Cl)c(Cl)c(Cl)c(Cl)c1-c1c2cc(I)c(=O)c(I)c-2oc2c(I)c([O-])c(I)cc12.[Na+].[Na+]` [rose bengal], the “complete occlusion, irradiation time” value (common carotid artery; 40 mg/kg i.v.) is reported as no more than 3 min, the “energy fluence at occlusion” value (common carotid artery) is reported as “about 35 kJ/sq cm” and the “total energy deposited at occlusion” value (common carotid artery) is reported as 140 to 180 joules (J). For the same molecule, the “fibrinogen in photoinduced MCA thrombi” value (fibrinogen) was “abundance”, the “length of colorless occluded segment” value (middle cerebral artery [1]; complete occlusion) was 7 to 10 arterial diameters and the “recanalization on saline bolus” value (middle cerebral artery [1]; five minutes after completion of irradiation) was “no recanalization was observed”. For the same molecule, the energy fluence (middle cerebral artery [1]; rat, in vivo) was roughly 3.5 kJ/sq cm, the total energy deposited (middle cerebral artery [1]; rat, in vivo) was “approximately 1 J” and the thrombus composition (middle cerebral artery [1]; ultrastructural analysis) was “composed primarily of aggregated platelets”. For the same molecule, the “irradiation time to effect complete occlusion” value (middle cerebral artery [1]; very low incident intensity) was no more than 3 min, the “pH of isotonic saline solution” value (15 mg/ml) was 6.80 and the “highest concentration which could be achieved practically” value (normal saline) was 100 mg/mL. The “disappearance through the feces” value [2] was 3 days, the “Factor VIII in photoinduced MCA thrombi” value (Factor VIII) was “abundance” and the “excitation efficiency relative to maximum of absorption” value ([3]; 514.5 nm argon line) was 36%. The “excitation efficiency relative to maximum” value ([3]; 543.5 nm He-Ne laser) was 58%, the “gain in efficiency of endothelial photosensitization, factor” value ([3]; argon-pumped dye laser (562 nm) over 514.5 nm argon line) was no less than 3 and the “wavelength of maximal excitation efficiency / absorption maximum in tissue” value ([3]; in tissue) was 562 nm. For the same molecule, the “external examination, discoloration” value [4] was “slightly pinkish discoloration of the mucosal surfaces”, the “lethargy or change of appetite” value [4] was “Neither lethargy nor change of appetite was noted” and the blood chemistry overall ([4]; 40 mg/kg) was “within the normal range except for a small number in the group that received the highest dosage”. The long-term systemic toxicity ([4]; iv) was “does not result in long-term systemic toxicity”, the half-life in blood [5] was “two” and the irradiation time (middle cerebral artery [6]; 2 mg per 100 g i.v., 50 mW, 514.5 nm) was roughly 5 min. For the same molecule, the occluded segment length (middle cerebral artery [6]; rat, in vivo) was “approximately 1 mm”.
